{"source": "patent US8008303B2", "about": "“Biphenyl derivatives and their use in treating hepatitis C” (AstraZeneca AB, priority 2005, dated 2011)", "key": {"[1]": {"system": "HCV replicon cells Huh 9B", "test": "HCV replicon assay (luciferase readout)", "assay_type": "cell-based", "how_it_was_run": "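Compounds, made up at twice final strength (final DMSO 1%), were added to subgenomic replicon cells one day after plating. Incubation then ran 72 h at 37 °C, 5% CO2, without G418. Replication was quantified as firefly luciferase luminescence in lysed cells, with cytotoxicity assessed on a duplicate clear plate.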"}, "[2]": {"system": "HCV replicon cells Huh 9B", "assay_type": "cell-based"}, "[3]": {"conditions": "Hepatitis C virus, 72 h, concentration reducing replicon level (luciferase activity) by 50% vs untreated cell control, 72 h incubation"}, "[4]": {"conditions": "concentration reducing total cell area by 50% relative to DMSO controls, methylene blue, absorbance 620 nm, 72 h incubation"}}, "note": "Where two headings read alike, the source gives them in different places.", "data": [{"smiles": "Cc1ccc(C(=O)Nc2ccc(CN3CCS(=O)(=O)CC3)cc2)cc1-c1ccc(C(=O)Nc2ccc(CN3CCS(=O)(=O)CC3)cc2)cc1", "note": "[Example 129, 6-Methyl-biphenyl-3,4′-dicarboxylic acid bis-{[4-(1,1-dioxo-1lambda*6*-thiomorpholin-4-ylmethyl)-phenyl]-amide}]", "values": [{"measurement": "IC50", "setting": "[1]; [3]", "value": "< 1000", "unit": "nM"}, {"measurement": "TD50", "setting": "[2]; [4]", "value": "* (* < 50 μM)"}]}, {"smiles": "Cc1ccc(C(=O)Nc2ccc(N(C)C)cc2)cc1-c1ccc(C(=O)Nc2ccc(CN3CCS(=O)(=O)CC3)cc2)cc1", "note": "[Example 130, 6-Methyl-biphenyl-3,4′-dicarboxylic acid 3-[(4-dimethylamino-phenyl)-amide] 4′-{[4-(1,1-dioxo-1lambda*6*-thiomorpholin-4-ylmethyl)-phenyl]-amide}]", "values": [{"measurement": "IC50", "setting": "[1]", "value": "< 1000", "unit": "nM"}, {"measurement": "TD50", "setting": "[2]", "value": "* (key: * < 50 μM; ** > 50 μM)"}]}, {"smiles": "Cc1cc(NC(=O)C2CC2)ccc1-c1cccc(C(=O)Nc2ccc(CN3CCS(=O)(=O)CC3)cc2)c1", "note": "[Example 131, 4′-(Cyclopropanecarbonyl-amino)-2′-methyl-biphenyl-3-carboxylic acid [4-(1,1-dioxo-1lambda*6*-thiomorpholin-4-ylmethyl)-phenyl]-amide]", "values": [{"measurement": "IC50", "setting": "[1]; [3]", "value": "1000 to 5000", "unit": "nM"}, {"measurement": "TD50", "setting": "[2]; [4]", "value": "* (* < 50 μM)"}]}, {"smiles": "Cc1ccc(NC(=O)C2CC2)cc1-c1ccc(C(=O)Nc2ccc(CN3CCS(=O)(=O)CC3)cc2)cc1", "note": "[Example 132, 5′-(Cyclopropanecarbonyl-amino)-2′-methyl-biphenyl-4-carboxylic acid [4-(1,1-dioxo-1lambda*6*-thiomorpholin-4-ylmethyl)-phenyl]-amide]", "values": [{"measurement": "IC50", "setting": "[1]; [3]", "value": "< 1000", "unit": "nM"}, {"measurement": "TD50", "setting": "[2]; [4]", "value": "* (* < 50 μM)"}]}, {"smiles": "Cc1cc(NC(=O)c2ccco2)ccc1-c1cccc(C(=O)Nc2ccc(CN3CCS(=O)(=O)CC3)cc2)c1", "note": "[Example 133, Furan-2-carboxylic acid {3′-[4-(1,1-dioxo-1lambda*6*-thiomorpholin-4-ylmethyl)-phenylcarbamoyl]-2-methyl-biphenyl-4-yl}-amide]", "values": [{"measurement": "IC50", "setting": "[1]; [3]", "value": "1000 to 5000", "unit": "nM"}, {"measurement": "TD50", "setting": "[2]; [4]", "value": "* (* < 50 μM)"}]}, {"smiles": "COc1ccccc1C(=O)Nc1ccc(-c2cccc(C(=O)Nc3ccc(CN4CCS(=O)(=O)CC4)cc3)c2)c(C)c1", "note": "[Example 134, 4′-(2-Methoxy-benzoylamino)-2′-methyl-biphenyl-3-carboxylic acid [4-(1,1-dioxo-1lambda*6*-thiomorpholin-4-ylmethyl)-phenyl]-amide]", "values": [{"measurement": "IC50", "setting": "[1]; [3]", "value": "1000 to 5000", "unit": "nM"}, {"measurement": "TD50", "setting": "[2]; [4]", "value": "* (* < 50 μM)"}]}, {"smiles": "Cc1cc(C(=O)Nc2ccc(N3CCOCC3)cc2)ccc1-c1cccc(C(=O)Nc2ccc(CN3CCS(=O)(=O)CC3)cc2)c1", "note": "[Example 135, 2′-Methyl-biphenyl-3,4′-dicarboxylic acid 3-{[4-(1,1-dioxo-1 lambda*6*-thiomorpholin-4-ylmethyl)-phenyl]-amide} 4′-[(4-morpholin-4-yl-phenyl)-amide]]", "values": [{"measurement": "IC50", "setting": "[1]", "value": "< 1000", "unit": "nM"}, {"measurement": "TD50", "setting": "[2]", "value": "* (key: * < 50 μM; ** > 50 μM)"}]}, {"smiles": "Cc1ccc(C(=O)Nc2ccc(N3CCOCC3)cc2)cc1-c1ccc(C(=O)Nc2cccc(CN3CCS(=O)(=O)CC3)c2)cc1", "note": "[Example 136, 6-Methyl-biphenyl-3,4′-dicarboxylic acid 4′-{[3-(1,1-dioxo-1lambda*6*-thiomorpholin-4-ylmethyl)-phenyl]-amide} 3-[(4-morpholin-4-yl-phenyl)-amide]]", "values": [{"measurement": "IC50", "setting": "[1]", "value": "1000 to 5000", "unit": "nM"}, {"measurement": "TD50", "setting": "[2]", "value": "* (key: * < 50 μM; ** > 50 μM)"}]}, {"smiles": "Cc1ccc(C(=O)NCCCN2CCCC2=O)cc1-c1ccc(C(=O)Nc2ccc(CN3CCS(=O)(=O)CC3)cc2)cc1", "note": "[Example 137, 6-Methyl-biphenyl-3,4′-dicarboxylic acid 4′-{[4-(1,1-dioxo-1lambda*6*-thiomorpholin-4-ylmethyl)-phenyl]-amide} 3-{[3-(2-oxo-pyrrolidin-1-yl) -propyl]-amide}]", "values": [{"measurement": "IC50", "setting": "[1]", "value": "1000 to 5000", "unit": "nM"}, {"measurement": "TD50", "setting": "[2]", "value": "* (key: * < 50 μM; ** > 50 μM)"}]}, {"smiles": "CCC1(c2ccc(NC(=O)c3ccc(C)c(-c4ccc(C(=O)Nc5ccc(CN6CCS(=O)(=O)CC6)cc5)cc4)c3)cc2)CCC(=O)NC1=O", "note": "(stereo not shown) [Example 138, 6-Methyl-biphenyl-3,4′-dicarboxylic acid 4′-{[4-(1,1-dioxo-1lambda*6*-thiomorpholin-4-ylmethyl)-phenyl]-amide} 3-{[4-(3-ethyl-2,6-dioxo-piperidin-3-yl)-phenyl]-amide}]", "values": [{"measurement": "IC50", "setting": "[1]", "value": "< 1000", "unit": "nM"}, {"measurement": "TD50", "setting": "[2]", "value": "* (key: * < 50 μM; ** > 50 μM)"}]}, {"smiles": "Cc1ccc(C(=O)Nc2ccc(-n3cncn3)cc2)cc1-c1ccc(C(=O)Nc2ccc(CN3CCS(=O)(=O)CC3)cc2)cc1", "note": "[Example 139, 6-Methyl-biphenyl-3,4′-dicarboxylic acid 4′-{[4-(1,1-dioxo-1lambda*6*-thiomorpholin-4-ylmethyl)-phenyl]-amide} 3-[(4-[1,2,4]triazol-1-yl-phenyl)-amide]]", "values": [{"measurement": "IC50", "setting": "[1]", "value": "< 1000", "unit": "nM"}, {"measurement": "TD50", "setting": "[2]", "value": "* (key: * < 50 μM; ** > 50 μM)"}]}, {"smiles": "Cc1ccc(C(=O)Nc2ccc(C(=O)N3CCOCC3)cc2)cc1-c1ccc(C(=O)Nc2ccc(CN3CCS(=O)(=O)CC3)cc2)cc1", "note": "[Example 140, 6-Methyl-biphenyl-3,4′-dicarboxylic acid 4′-{[4-(1,1-dioxo-1lambda*6*-thiomorpholin-4-ylmethyl)-phenyl]-amide} 3-{[4-(morpholine-4-carbonyl) -phenyl]-amide}]", "values": [{"measurement": "IC50", "setting": "[1]", "value": "1000 to 5000", "unit": "nM"}, {"measurement": "TD50", "setting": "[2]", "value": "* (key: * < 50 μM; ** > 50 μM)"}]}, {"smiles": "CNC(=O)c1ccc(NC(=O)c2ccc(C)c(-c3ccc(C(=O)Nc4ccc(CN5CCS(=O)(=O)CC5)cc4)cc3)c2)cc1", "note": "[Example 141, 6-Methyl-biphenyl-3,4′-dicarboxylic acid 4′-{[4-(1,1-dioxo-1lambda*6*-thiomorpholin-4-ylmethyl)-phenyl]-amide} 3-[(4-methylcarbamoyl-phenyl)-amide]]", "values": [{"measurement": "IC50", "setting": "[1]", "value": "1000 to 5000", "unit": "nM"}, {"measurement": "TD50", "setting": "[2]", "value": "* (key: * < 50 μM; ** > 50 μM)"}]}, {"smiles": "Cc1ccc(C(=O)Nc2ccc(C(=O)N(C)C)cc2)cc1-c1ccc(C(=O)Nc2ccc(CN3CCS(=O)(=O)CC3)cc2)cc1", "note": "[Example 142, 6-Methyl-biphenyl-3,4′-dicarboxylic acid 3-[(4-dimethylcarbamoyl-phenyl)-amide] 4′-{[4-(1,1-dioxo-1lambda*6*-thiomorpholin-4-ylmethyl)-phenyl]-amide}]", "values": [{"measurement": "IC50", "setting": "[1]", "value": "1000 to 5000", "unit": "nM"}, {"measurement": "TD50", "setting": "[2]", "value": "* (key: * < 50 μM; ** > 50 μM)"}]}, {"smiles": "CCc1nnc(NC(=O)c2ccc(C)c(-c3ccc(C(=O)Nc4ccc(CN5CCS(=O)(=O)CC5)cc4)cc3)c2)s1", "note": "[Example 143, 6-Methyl-biphenyl-3,4′-dicarboxylic acid 4′-{[4-(1,1-dioxo-1lambda*6*-thiomorpholin-4-ylmethyl)-phenyl]-amide} 3-[(5-ethyl-[1,3,4]thiadiazol-2-yl)-amide]]", "values": [{"measurement": "IC50", "setting": "[1]", "value": "1000 to 5000", "unit": "nM"}, {"measurement": "TD50", "setting": "[2]", "value": "* (key: * < 50 μM; ** > 50 μM)"}]}, {"smiles": "Cc1ccc(C(=O)Nc2ccc(C(=O)N3CCCCC3)cc2)cc1-c1ccc(C(=O)Nc2ccc(CN3CCS(=O)(=O)CC3)cc2)cc1", "note": "[Example 144, 6-Methyl-biphenyl-3,4′-dicarboxylic acid 4′-{[4-(1,1-dioxo-1lambda*6*-thiomorpholin-4-ylmethyl)-phenyl]-amide} 3-{[4-(piperidine-1-carbonyl) -phenyl]-amide}]", "values": [{"measurement": "IC50", "setting": "[1]", "value": "1000 to 5000", "unit": "nM"}, {"measurement": "TD50", "setting": "[2]", "value": "* (key: * < 50 μM; ** > 50 μM)"}]}, {"smiles": "Cc1cc(NC(=O)c2ccc(C)c(-c3ccc(C(=O)Nc4ccc(CN5CCS(=O)(=O)CC5)cc4)cc3)c2)sn1", "note": "[Example 145, 6-Methyl-biphenyl-3,4′-dicarboxylic acid 4′-{[4-(1,1-dioxo-1lambda*6*-thiomorpholin-4-ylmethyl)-phenyl]-amide} 3-[(3-methyl-isothiazol-5-yl)-amide]]", "values": [{"measurement": "IC50", "setting": "[1]", "value": "1000 to 5000", "unit": "nM"}, {"measurement": "TD50", "setting": "[2]", "value": "* (key: * < 50 μM; ** > 50 μM)"}]}, {"smiles": "Cc1ccc(C(=O)NCC2CCCCC2)cc1-c1ccc(C(=O)Nc2ccc(CN3CCS(=O)(=O)CC3)cc2)cc1", "note": "[Example 146, 6-Methyl-biphenyl-3,4′-dicarboxylic acid 3-cyclohexylmethyl-amide 4′-{[4-(1,1-dioxo-1lambda*6*-thiomorpholin-4-ylmethyl)-phenyl]-amide}]", "values": [{"measurement": "IC50", "setting": "[1]", "value": "< 1000", "unit": "nM"}, {"measurement": "TD50", "setting": "[2]", "value": "* (key: * < 50 μM; ** > 50 μM)"}]}, {"smiles": "Cc1ccc(C(=O)NC2CCCCCC2)cc1-c1ccc(C(=O)Nc2ccc(CN3CCS(=O)(=O)CC3)cc2)cc1", "note": "[Example 147, 6-Methyl-biphenyl-3,4′-dicarboxylic acid 3-cycloheptylamide 4′-{[4-(1,1-dioxo-1lambda*6*-thiomorpholin-4-ylmethyl)-phenyl]-amide}]", "values": [{"measurement": "IC50", "setting": "[1]", "value": "1000 to 5000", "unit": "nM"}, {"measurement": "TD50", "setting": "[2]", "value": "* (key: * < 50 μM; ** > 50 μM)"}]}, {"smiles": "Cc1ccc(C(=O)NC2CCCC2)cc1-c1ccc(C(=O)Nc2ccc(CN3CCS(=O)(=O)CC3)cc2)cc1", "note": "[Example 148, 6-Methyl-biphenyl-3,4′-dicarboxylic acid 3-cyclopentylamide 4′-{[4-(1,1-dioxo-1lambda*6*-thiomorpholin-4-ylmethyl)-phenyl]-amide}]", "values": [{"measurement": "IC50", "setting": "[1]", "value": "1000 to 5000", "unit": "nM"}, {"measurement": "TD50", "setting": "[2]", "value": "* (key: * < 50 μM; ** > 50 μM)"}]}, {"smiles": "Cc1ccc(NC(=O)C2CC2)cc1-c1ccc(NC(=O)c2ccc(CN3CCS(=O)(=O)CC3)cc2)cc1", "note": "[Example 149, N-[5′-(Cyclopropanecarbonyl-amino)-2′-methyl-biphenyl-4-yl]-4-(1,1-dioxo-1lambda*6*-thiomorpholin-4-ylmethyl)-benzamide]", "values": [{"measurement": "IC50", "setting": "[1]; [3]", "value": "< 1000", "unit": "nM"}, {"measurement": "TD50", "setting": "[2]; [4]", "value": "* (* < 50 μM)"}]}, {"smiles": "Cc1ccc(NC(=O)C2CCCCC2)cc1-c1ccc(NC(=O)c2ccc(CN3CCS(=O)(=O)CC3)cc2)cc1", "note": "[Example 150, N-[5′-(Cyclohexanecarbonyl-amino)-2′-methyl-biphenyl-4-yl]-4-(1,1-dioxo-1lambda*6*-thiomorpholin-4-ylmethyl)-benzamide]", "values": [{"measurement": "IC50", "setting": "[1]; [3]", "value": "< 1000", "unit": "nM"}, {"measurement": "TD50", "setting": "[2]; [4]", "value": "* (* < 50 μM)"}]}, {"smiles": "Cc1ccc(C(=O)Nc2ccc(N3CCOCC3)cc2)cc1-c1ccc(NC(=O)c2ccc(CN3CCS(=O)(=O)CC3)cc2)cc1", "note": "[Example 151, 4′-[4-(1,1-Dioxo-1lambda*6*-thiomorpholin-4-ylmethyl)-benzoylamino]-6-methyl-biphenyl-3-carboxylic acid (4-morpholin-4-yl-phenyl)-amide]", "values": [{"measurement": "IC50", "setting": "[1]; [3]", "value": "< 1000", "unit": "nM"}, {"measurement": "TD50", "setting": "[2]; [4]", "value": "* (* < 50 μM)"}]}]}
